Reference: patent US11913032B2, “Compositions of and methods for in vitro viral genome engineering” (C3J Therapeutics, Inc., priority 2014, dated 2024)

System: P. aeruginosa biofilm
Experiment: Crystal violet biofilm assay, early (8 h preformed) biofilm disruption
Assay type: cell-based
Details: biofilm preformed for 8 hours, compared with wild type LUZ19
Method: To validate that a Gp34 L55Δ mutation had improved viral properties, the LUZ19 viral genome was isolated from viral particles. Site-specific digestion was performed using an RNA-dependent nuclease and in vitro transcribed gRNAs to remove the gp34 gene (SEQ ID NO:4). The gp34 L55Δ gene, which harbors a deletion of leucine codon at amino acid position 55 (Gp34 L55Δ, position 163-165 of SEQ ID NO:4) was PCR amplified from a LUZ19 evolved phage. The Gibson Assembly method was used to integrate the PCR amplified gp34 L55Δ gene seamlessly into the digested LUZ19 genome. The in vitro transformed genomes were transformed directly into host cells to yield functional viral particles. The engineered LUZ19 virus harboring Gp34 L55Δ was able to diffuse and lyse bacteria. […] Images were taken and zones of clearing were measured over a two-day period (FIG. 5B). […] Crystal violet biofilm assay measures biofilm accumulation as a measure of the incorporation of crystal violet (FIG. 5C). […]
The LUZ19*LKD16gp18 virus was analyzed for improved viral properties, using double agar plaque, biofilm, and an in vitro human keratinocyte attachment assays. […] Specifically, LUZ19*LKD16gp18 and wild type LUZ19 were incubated with a P. aeruginosa biofilm and disruption was measured using crystal violet. […] The LUZ19*LKD16gp18 virus was analyzed for efficacy of phage treatment against bacteria attached to human keratinocytes. […]

Question: Which early biofilm disruption does the source give for Gentamicin here?
Answer: completely remove biofilm
